Source: ChEMBL document CHEMBL1130509 (Bioorg Med Chem Lett, 1997)

Assays:
[1] = molecular target: 5-hydroxytryptamine receptor 4 (Rattus norvegicus, UniProt Q62758); assay: Agonist activity against serotonin 5-HT4 receptor in rat tunica muscularis mucosae assay; format: functional
[2] = molecular target: T1, Serotonin 3 (5-HT3) receptor (Rattus norvegicus, UniProt P35563+Q9JJ16); assay: (§1) Compound was tested for its binding affinity for the 5-hydroxytryptamine 3 receptor; format: protein-complex assay
T1 sequence (P35563 whole entry): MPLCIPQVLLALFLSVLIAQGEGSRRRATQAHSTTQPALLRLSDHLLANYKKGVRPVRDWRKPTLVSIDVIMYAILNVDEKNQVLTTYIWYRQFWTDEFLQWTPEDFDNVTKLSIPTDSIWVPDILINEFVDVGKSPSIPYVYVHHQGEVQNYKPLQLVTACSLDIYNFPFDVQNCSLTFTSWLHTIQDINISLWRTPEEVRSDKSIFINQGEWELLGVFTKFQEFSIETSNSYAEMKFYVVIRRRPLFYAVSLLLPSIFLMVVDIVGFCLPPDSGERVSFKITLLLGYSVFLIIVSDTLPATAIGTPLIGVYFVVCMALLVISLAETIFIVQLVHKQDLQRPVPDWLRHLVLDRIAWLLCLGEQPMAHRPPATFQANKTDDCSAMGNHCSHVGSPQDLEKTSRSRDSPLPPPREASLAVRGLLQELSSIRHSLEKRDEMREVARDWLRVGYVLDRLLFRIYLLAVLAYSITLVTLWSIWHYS
T1 sequence (Q9JJ16 whole entry): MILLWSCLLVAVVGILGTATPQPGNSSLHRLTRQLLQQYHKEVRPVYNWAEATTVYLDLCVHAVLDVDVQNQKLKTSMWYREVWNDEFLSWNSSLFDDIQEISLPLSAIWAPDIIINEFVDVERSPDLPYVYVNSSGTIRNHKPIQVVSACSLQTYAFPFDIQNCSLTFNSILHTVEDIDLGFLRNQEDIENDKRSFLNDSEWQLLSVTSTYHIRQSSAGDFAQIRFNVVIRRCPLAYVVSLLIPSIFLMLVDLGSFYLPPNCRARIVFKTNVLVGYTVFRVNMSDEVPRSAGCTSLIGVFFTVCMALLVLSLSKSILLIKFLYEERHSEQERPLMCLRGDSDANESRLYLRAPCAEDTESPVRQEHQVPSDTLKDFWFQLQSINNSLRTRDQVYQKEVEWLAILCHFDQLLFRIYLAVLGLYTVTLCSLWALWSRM

D(2) dopamine receptor [3] = molecular target: T2, D(2) dopamine receptor (Homo sapiens, UniProt P14416); assay: Compound was selective with respect to binding at the Dopamine receptor D2
T2 sequence (P14416 whole entry): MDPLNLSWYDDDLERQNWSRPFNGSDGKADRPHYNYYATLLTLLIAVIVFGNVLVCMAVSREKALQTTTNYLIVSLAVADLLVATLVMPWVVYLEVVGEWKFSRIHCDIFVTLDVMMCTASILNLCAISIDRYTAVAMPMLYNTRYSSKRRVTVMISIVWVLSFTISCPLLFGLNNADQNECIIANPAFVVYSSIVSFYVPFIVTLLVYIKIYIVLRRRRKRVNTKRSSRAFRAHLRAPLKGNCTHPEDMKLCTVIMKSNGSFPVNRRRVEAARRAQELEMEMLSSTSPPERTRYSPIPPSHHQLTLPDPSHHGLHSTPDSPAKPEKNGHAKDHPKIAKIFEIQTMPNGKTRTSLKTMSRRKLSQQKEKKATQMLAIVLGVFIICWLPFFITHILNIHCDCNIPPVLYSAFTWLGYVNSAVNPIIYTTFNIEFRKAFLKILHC

Mus musculus = assay: Compound was tested for inhibition of serotonin 5-HT3 receptor mediated bradycardia in Bezold-Jarisch reflex model in mice at 1 mg/kg after intraperitoneal administration; format: functional; conditions: ip
[4] = Compound was tested for inhibitory activity against 5-hydroxytryptamine 1 receptor
[5] = molecular target: Serotonin 2 (5-HT2) receptor (Homo sapiens, UniProt P41595+P28223+P28335); assay: Compound was tested for inhibitory activity against 5-hydroxytryptamine 2 receptor; format: protein assay
[6] = molecular target: T3, Alpha-1B adrenergic receptor (Homo sapiens, UniProt P35368); assay: Compound was tested for inhibitory activity against adrenergic alpha-1 receptor
T3 sequence (P35368 whole entry): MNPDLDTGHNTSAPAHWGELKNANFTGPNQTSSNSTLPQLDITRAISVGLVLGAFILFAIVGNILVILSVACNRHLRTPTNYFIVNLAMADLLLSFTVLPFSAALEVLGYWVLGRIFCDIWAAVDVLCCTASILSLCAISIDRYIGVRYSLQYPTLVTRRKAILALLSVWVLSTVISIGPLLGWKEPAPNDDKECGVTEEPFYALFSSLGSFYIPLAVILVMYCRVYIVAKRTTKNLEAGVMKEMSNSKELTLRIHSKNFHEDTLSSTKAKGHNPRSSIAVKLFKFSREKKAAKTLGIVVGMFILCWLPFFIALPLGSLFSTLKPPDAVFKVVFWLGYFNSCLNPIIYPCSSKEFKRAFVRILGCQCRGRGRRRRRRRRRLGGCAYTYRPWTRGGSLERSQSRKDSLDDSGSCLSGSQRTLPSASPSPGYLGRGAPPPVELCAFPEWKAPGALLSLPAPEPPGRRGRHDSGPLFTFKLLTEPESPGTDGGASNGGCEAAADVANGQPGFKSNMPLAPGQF

[7] = molecular target: T4, Alpha-2A adrenergic receptor (Rattus norvegicus, UniProt P22909); assay: Compound was tested for inhibitory activity against adrenergic alpha-2 receptor
T4 sequence (P22909 whole entry): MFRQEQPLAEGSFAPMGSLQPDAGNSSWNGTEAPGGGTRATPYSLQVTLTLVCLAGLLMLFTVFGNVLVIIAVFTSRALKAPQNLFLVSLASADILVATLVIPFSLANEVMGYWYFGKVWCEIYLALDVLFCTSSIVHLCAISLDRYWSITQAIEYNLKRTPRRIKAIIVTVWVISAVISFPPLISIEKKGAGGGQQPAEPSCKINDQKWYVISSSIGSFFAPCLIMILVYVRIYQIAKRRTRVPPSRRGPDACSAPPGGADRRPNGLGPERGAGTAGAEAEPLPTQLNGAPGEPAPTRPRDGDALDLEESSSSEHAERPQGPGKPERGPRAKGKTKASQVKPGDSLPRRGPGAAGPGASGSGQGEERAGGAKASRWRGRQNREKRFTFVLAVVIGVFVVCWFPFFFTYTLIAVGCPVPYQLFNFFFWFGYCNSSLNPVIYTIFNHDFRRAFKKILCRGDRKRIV

Adrenergic receptor beta = Adrenergic receptor beta (Homo sapiens, UniProt P08588+P07550+P13945); assay: Compound was tested for inhibitory activity against Beta adrenergic receptor; format: protein assay
D(2) dopamine receptor [8] = molecular target: T2, D(2) dopamine receptor; assay: Compound was tested for inhibitory activity against Dopamine D2 receptor
D(1A) dopamine receptor = D(1A) dopamine receptor (Homo sapiens, UniProt P21728); assay: Compound was tested for inhibitory activity against Dopamine D1 receptor
Sequence of D(1A) dopamine receptor (P21728 whole entry): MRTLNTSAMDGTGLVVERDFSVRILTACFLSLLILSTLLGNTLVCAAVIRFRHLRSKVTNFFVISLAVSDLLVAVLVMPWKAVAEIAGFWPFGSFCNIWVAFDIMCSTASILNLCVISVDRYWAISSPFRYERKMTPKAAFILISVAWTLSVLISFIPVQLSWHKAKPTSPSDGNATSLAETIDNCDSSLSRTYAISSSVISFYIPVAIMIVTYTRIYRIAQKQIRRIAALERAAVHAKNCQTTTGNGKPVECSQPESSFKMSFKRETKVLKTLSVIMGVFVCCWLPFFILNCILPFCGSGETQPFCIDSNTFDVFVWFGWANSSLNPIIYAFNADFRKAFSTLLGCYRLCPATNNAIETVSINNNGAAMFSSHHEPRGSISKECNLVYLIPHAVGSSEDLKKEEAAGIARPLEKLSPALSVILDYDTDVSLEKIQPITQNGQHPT

[9] = molecular target: Muscarinic acetylcholine receptor M3 (Rattus norvegicus, UniProt P08483); assay: Compound was tested for inhibitory activity against Muscarinic acetylcholine receptor
Sequence of Muscarinic acetylcholine receptor M3 (P08483 whole entry): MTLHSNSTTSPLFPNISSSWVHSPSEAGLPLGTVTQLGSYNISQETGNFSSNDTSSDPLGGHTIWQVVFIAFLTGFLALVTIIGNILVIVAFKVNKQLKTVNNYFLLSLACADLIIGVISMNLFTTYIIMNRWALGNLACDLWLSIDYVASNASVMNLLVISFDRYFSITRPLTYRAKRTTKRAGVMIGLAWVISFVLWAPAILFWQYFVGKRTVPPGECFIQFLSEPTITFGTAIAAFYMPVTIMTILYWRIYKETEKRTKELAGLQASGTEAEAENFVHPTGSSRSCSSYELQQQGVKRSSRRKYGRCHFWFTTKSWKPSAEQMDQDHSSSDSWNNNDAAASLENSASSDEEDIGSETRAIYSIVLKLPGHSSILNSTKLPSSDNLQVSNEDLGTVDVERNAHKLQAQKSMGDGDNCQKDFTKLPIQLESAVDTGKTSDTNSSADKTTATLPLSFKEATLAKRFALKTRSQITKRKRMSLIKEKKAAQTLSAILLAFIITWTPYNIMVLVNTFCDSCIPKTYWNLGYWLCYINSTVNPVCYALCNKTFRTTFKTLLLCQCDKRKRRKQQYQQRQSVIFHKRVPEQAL

Substance-P receptor = Substance-P receptor (Homo sapiens, UniProt P25103); assay: Compound was tested for inhibitory activity against Tachykinin receptor 1
Sequence of Substance-P receptor (P25103 whole entry): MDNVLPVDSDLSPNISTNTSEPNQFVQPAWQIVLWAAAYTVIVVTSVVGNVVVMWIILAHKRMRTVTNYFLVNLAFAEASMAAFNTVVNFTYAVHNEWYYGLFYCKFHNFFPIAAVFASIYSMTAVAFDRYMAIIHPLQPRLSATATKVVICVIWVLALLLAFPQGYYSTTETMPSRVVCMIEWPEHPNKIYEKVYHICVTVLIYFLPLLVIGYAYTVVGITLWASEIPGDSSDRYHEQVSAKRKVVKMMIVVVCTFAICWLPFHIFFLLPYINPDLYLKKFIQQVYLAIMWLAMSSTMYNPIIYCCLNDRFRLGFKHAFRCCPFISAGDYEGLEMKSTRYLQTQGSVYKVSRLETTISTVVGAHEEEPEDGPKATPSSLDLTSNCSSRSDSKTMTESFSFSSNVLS

[10] = molecular target: T5, 5-hydroxytryptamine receptor 3A (Homo sapiens, UniProt P46098); assay: as §1
T5 sequence (P46098 whole entry): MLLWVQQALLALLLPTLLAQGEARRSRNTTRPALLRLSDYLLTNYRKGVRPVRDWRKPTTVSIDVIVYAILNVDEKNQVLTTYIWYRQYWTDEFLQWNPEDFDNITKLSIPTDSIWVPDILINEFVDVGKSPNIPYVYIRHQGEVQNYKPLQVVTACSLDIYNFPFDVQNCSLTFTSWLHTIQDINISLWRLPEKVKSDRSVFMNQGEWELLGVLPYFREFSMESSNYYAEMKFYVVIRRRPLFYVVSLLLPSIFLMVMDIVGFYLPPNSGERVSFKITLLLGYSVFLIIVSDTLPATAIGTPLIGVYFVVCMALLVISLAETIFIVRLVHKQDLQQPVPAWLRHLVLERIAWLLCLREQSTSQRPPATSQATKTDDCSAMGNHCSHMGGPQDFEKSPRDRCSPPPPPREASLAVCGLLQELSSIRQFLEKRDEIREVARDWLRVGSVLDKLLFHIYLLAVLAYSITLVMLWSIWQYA

Sequence of 5-hydroxytryptamine receptor 4 (Q62758 whole entry): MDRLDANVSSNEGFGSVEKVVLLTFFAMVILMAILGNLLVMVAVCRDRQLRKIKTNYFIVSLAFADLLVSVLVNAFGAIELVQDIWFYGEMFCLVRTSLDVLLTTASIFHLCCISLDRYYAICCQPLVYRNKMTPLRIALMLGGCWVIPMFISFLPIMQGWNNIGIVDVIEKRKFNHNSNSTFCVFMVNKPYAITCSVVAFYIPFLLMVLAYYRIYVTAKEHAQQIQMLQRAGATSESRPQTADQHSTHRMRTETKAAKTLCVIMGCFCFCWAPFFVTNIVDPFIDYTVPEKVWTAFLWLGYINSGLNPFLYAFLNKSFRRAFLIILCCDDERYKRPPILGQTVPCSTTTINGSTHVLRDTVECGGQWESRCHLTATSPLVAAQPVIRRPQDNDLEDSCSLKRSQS

Compound `COc1cc(NC(C)=O)c(Cl)cc1C(=O)NCC1C2CC3CC1CN3C2` (configuration not stated) has an EC50 [1] greater than 10 µM.

Work on `COc1cc(N)c(Cl)cc1C(=O)NCC12CC3CN(CC3C1)C2` yielded a Ki [2] of 0.005 µM, an IC50 (D(2) dopamine receptor [3]) greater than 10 µM and an inhibition in vivo at 1 mg/kg (Mus musculus) of 70%.

Work on `COc1cc(N)c(Cl)cc1C(=O)NC1C2CC3CN(C2)CC31.Cl` (configuration not stated) yielded an IC50 [4] greater than 10 µM, an IC50 [5] greater than 10 µM and an IC50 [6] greater than 10 µM. It also gave an IC50 [7] greater than 10 µM, an IC50 (Adrenergic receptor beta) greater than 10 µM and an IC50 (D(2) dopamine receptor [8]) greater than 10 µM. For the same compound, the IC50 (D(1A) dopamine receptor) was greater than 10 µM, the IC50 [9] was greater than 10 µM and the EC50 [1] was 0.051 µM. The IC50 (Substance-P receptor) was greater than 10 µM and the Ki [10] was 0.0012 µM.

Compound `COc1cc(N)c(Cl)cc1C(=O)NCCC12CC3CN(CC3C1)C2` has an EC50 [1] of 1.66 µM.

For `COc1cc(NC(C)=O)c(Cl)cc1C(=O)NC1C2CC3CC1CN3C2` (configuration not stated), the EC50 [1] was greater than 10 µM.
